Assay results: patent publication US9783536B2, “Nitrogen-containing heterocyclic compound or salt thereof” (FUJIFILM Corporation, priority 2013, dated 2017)
Like-named read-outs stand apart in the source and are kept apart here.

Key:
human PI3Kα protein = target: T1, human PI3Kα protein (Homo sapiens, UniProt P42336); assay: PI3Kα enzyme assay (ADP-Glo); assay type: biochemical; details: read-out: PI3Kα enzyme inhibitory activity
T1 construct: purchased Carna Biosciences, Inc; host or cells: baculovirus expression system
Procedure, shortened: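 Biotinylated human PI3Kα (baculovirus-expressed, 4.5 nmol/L) pre-incubated 15 min with compound in Tris-HCl pH 7.5, MgCl2, BSA; reaction 60 min at 25° C with 50 μmol/L PIP2 and 100 μmol/L ATP final. ADP quantified by ADP-Glo luminescence; IC50 calculated.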

[1] = target: T2, GST fusion human ERK2 protein (Homo sapiens, UniProt P28482); assay: ERK2 enzyme assay (2); assay type: biochemical; details: read-out: ERK2 enzyme inhibitory activity (2)
T2 construct: purchased Carna Biosciences, Inc; host or cells: E. coli expression system
Procedure, shortened: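 IC50 values come from mobility-shift measurement of phosphorylated versus unphosphorylated 5-FAM peptide substrate after EDTA quench. Beforehand, compound and 1.25 nmol/L E. coli-expressed GST–human ERK2 stood 15 min at room temperature (pH 7.5), then 1 mmol/L ATP and 4.25 μmol/L substrate (final) were added for 120 min at 25 °C.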

T1 sequence (P42336 whole entry): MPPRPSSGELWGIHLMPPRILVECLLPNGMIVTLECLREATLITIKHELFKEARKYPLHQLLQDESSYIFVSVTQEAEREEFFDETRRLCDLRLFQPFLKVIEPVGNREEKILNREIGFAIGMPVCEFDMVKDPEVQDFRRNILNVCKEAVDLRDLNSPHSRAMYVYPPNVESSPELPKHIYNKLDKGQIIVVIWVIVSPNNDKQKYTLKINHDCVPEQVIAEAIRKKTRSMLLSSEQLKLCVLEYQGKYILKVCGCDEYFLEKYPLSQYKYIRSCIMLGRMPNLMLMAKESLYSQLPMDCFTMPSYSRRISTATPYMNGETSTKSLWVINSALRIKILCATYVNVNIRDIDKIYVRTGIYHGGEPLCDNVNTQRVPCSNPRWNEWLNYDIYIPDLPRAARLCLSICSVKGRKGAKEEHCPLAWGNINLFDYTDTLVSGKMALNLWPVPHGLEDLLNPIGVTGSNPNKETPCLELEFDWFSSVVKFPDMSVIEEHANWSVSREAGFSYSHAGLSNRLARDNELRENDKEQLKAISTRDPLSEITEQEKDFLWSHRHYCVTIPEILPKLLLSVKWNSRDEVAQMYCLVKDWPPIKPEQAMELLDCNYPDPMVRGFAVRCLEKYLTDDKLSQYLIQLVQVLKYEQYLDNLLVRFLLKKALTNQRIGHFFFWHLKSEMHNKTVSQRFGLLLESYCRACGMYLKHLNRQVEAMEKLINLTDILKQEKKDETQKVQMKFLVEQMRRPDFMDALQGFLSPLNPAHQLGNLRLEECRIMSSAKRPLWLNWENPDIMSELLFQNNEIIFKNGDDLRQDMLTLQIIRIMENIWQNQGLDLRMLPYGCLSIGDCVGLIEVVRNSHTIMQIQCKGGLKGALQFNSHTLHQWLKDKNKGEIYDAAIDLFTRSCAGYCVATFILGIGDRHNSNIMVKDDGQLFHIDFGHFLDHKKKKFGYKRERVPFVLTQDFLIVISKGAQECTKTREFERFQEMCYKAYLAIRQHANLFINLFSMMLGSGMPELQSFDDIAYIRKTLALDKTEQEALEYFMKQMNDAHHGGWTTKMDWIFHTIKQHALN
T1 sequence (P27986 whole entry partner): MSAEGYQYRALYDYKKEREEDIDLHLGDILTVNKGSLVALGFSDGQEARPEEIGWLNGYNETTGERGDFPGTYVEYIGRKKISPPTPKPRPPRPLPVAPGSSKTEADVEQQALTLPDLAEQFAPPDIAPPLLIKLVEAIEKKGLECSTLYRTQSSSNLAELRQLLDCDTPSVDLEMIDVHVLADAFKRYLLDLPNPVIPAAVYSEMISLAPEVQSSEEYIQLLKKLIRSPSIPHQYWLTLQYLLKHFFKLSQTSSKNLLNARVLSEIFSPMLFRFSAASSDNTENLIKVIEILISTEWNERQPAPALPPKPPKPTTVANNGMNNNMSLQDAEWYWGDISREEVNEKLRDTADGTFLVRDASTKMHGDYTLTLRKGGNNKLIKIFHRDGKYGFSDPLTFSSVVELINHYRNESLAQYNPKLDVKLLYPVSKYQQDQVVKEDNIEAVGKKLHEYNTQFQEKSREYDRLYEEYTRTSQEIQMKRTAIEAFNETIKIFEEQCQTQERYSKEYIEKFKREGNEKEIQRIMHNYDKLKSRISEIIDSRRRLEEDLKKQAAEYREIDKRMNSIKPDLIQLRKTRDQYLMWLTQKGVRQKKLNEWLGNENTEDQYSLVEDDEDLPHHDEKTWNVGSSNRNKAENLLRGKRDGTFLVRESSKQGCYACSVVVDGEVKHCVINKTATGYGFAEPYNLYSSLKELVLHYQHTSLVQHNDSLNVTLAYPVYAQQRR
T2 sequence (P28482 whole entry, the tested form may be a part): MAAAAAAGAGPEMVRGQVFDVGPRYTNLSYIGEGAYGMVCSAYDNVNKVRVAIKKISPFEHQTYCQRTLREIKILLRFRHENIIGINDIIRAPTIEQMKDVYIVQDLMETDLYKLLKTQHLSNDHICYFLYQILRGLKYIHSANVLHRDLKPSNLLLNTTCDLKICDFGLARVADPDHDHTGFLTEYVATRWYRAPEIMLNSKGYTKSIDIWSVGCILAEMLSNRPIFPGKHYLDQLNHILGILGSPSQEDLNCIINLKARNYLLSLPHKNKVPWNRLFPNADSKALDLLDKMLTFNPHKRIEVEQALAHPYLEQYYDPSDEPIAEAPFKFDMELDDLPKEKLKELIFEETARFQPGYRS

COC(CN1CC(F)C1)Cn1cc(-c2cnc3ccc(Nc4cc(C(C)C)cnn4)nc3c2)cn1 (stereo not drawn) [Example 0815, 7-(1-(3-(3-Fluoroazetidin-1-yl)-2-methoxypropyl)-1H-pyrazol-4-yl)-N-(5-isopropylpyridazin-3-yl)-1,5-naphthyridine-2-amine]
IC50 (human PI3Kα protein): < 1000 nM | IC50 ([1]; ERK2 enzyme assay (2)): < 1000 nM

CC(C)c1cnnc(Nc2ccc3ncc(-c4cnn(CCCN5CC(F)(F)C5)c4)cc3n2)c1 [Example 0692]
IC50 (human PI3Kα protein): < 1000 nM | IC50 ([1]; ERK2 enzyme assay (2)): < 1000 nM

Cc1ccc(S(=O)(=O)Nc2cnc3ccc(Nc4cc(C(C)C)cnn4)nc3c2)cc1 [Example 0839, N-(6-((5-isopropylpyridazin-3-yl)amino)-1,5-naphthyridin-3-yl)-4-methylbenzene sulfonamide]
IC50 (human PI3Kα protein): 10000 to 50000 nM | IC50 ([1]; ERK2 enzyme assay (2)): 1000 to 10000 nM

CC(C)c1cnnc(Nc2ccc3ncc(-c4cnn(CCCN5CC(O)(CCO)C5)c4)cc3n2)c1 [Example 0702]
IC50 (human PI3Kα protein): < 1000 nM | IC50 ([1]; ERK2 enzyme assay (2)): < 1000 nM

Cn1cc(-c2cnc3ccc(Nc4cc(C5CCOCC5)cnn4)nc3c2)cn1 [Example 0759]
IC50 (human PI3Kα protein): < 1000 nM | IC50 ([1]; ERK2 enzyme assay (2)): < 1000 nM

CC(C)c1cnnc(Nc2ccc3ncc(C4=CCNCC4)cc3n2)c1 [Example 0881, N-(5-isopropylpyridazin-3-yl)-7-(1,2,3,6-tetrahydropyridin-4-yl)-1,5-naphthyridine-2-amine]
IC50 (human PI3Kα protein): 1000 to 10000 nM | IC50 ([1]; ERK2 enzyme assay (2)): < 1000 nM

CC(C)c1cnnc(Nc2ccc3ncc(-c4cnn(CCCN5CC(OCC(F)F)C5)c4)cc3n2)c1 [Example 0714]
IC50 (human PI3Kα protein): < 1000 nM | IC50 ([1]; ERK2 enzyme assay (2)): < 1000 nM

CC(C)c1cnnc(Nc2ccc3ncc(-c4cnn(CCOC5CN(S(C)(=O)=O)C5)c4)cc3n2)c1 [Example 0755, N-(5-isopropylpyridazin-3-yl)-7-(1-(2-((1-(methylsulfonyl)azetidin-3-yl)oxy)ethyl)-1H-pyrazol-4-yl)-1,5-naphthyridine-2-amine]
IC50 (human PI3Kα protein): < 1000 nM | IC50 ([1]; ERK2 enzyme assay (2)): < 1000 nM

Cc1nn(C)cc1-c1cnc2ccc(Nc3cc(C4(C)CC4)cnn3)nc2c1 [Example 0885, 7-(1,3-Dimethyl-1H-pyrazol-4-yl)-N-(5-(1-methylcyclopropyl)pyridazin-3-yl)-1,5-naphthyridine-2-amine]
IC50 (human PI3Kα protein): < 1000 nM | IC50 ([1]; ERK2 enzyme assay (2)): < 1000 nM

Cc1ccnnc1Nc1ccc2ncc(-c3cnn(C)c3)cc2n1 [Example 0489]
IC50 (human PI3Kα protein): 10000 to 50000 nM | IC50 ([1]; ERK2 enzyme assay (2)): 1000 to 10000 nM

CC(C)c1cnnc(Nc2ccc3ncc(N4CCN(C)C(=O)C4)cc3n2)c1 [Example 0887]
IC50 (human PI3Kα protein): < 1000 nM | IC50 ([1]; ERK2 enzyme assay (2)): 1000 to 10000 nM

COC(CN1CC(OC(F)F)C1)Cn1cc(-c2cnc3ccc(Nc4cc(C(C)C)cnn4)nc3c2)cn1 (stereo not drawn) [Example 0813, 7-(1-(3-(3-(Difluoromethoxy)azetidin-1-yl)-2-methoxypropyl)-1H-pyrazol-4-yl)-N-(5-isopropylpyridazin-3-yl)-1,5-naphthyridine-2-amine]
IC50 (human PI3Kα protein): < 1000 nM | IC50 ([1]; ERK2 enzyme assay (2)): < 1000 nM

CC(C)OC1CN(c2cnc3ccc(Nc4cc(C(C)C)cnn4)nc3c2)C1 [Example 0863]
IC50 (human PI3Kα protein): 1000 to 10000 nM | IC50 ([1]; ERK2 enzyme assay (2)): < 1000 nM

CO[C@H]1CCC[C@@H]1Nc1cnc2ccc(Nc3cc(C(C)C)cnn3)nc2c1 [Example 0894]
IC50 (human PI3Kα protein): < 1000 nM | IC50 ([1]; ERK2 enzyme assay (2)): 1000 to 10000 nM

Cc1nn(C)cc1-c1cnc2ccc(Nc3cc(CS(=O)(=O)N(C)C)cnn3)nc2c1 [Example 0925, 1-(6-((7-(1,3-Dimethyl-1H-pyrazol-4-yl)-1,5-naphthyridin-2-yl)amino)pyridazin-4-yl)-N,N-dimethylmethane sulfonamide]
IC50 (human PI3Kα protein): < 1000 nM | IC50 [1]: < 1000 nM

Cc1nn(CCCO)cc1-c1cnc2ccc(Nc3cc(C(C)C)cnn3)nc2c1 [Example 0800, 3-(4-(6-((5-Isopropylpyridazin-3-yl)amino)-1,5-naphthyridin-3-yl)-3-methyl-1H-pyrazol-1-yl)propan-1-ol]
IC50 (human PI3Kα protein): < 1000 nM | IC50 ([1]; ERK2 enzyme assay (2)): < 1000 nM

CC(C)c1cnnc(Nc2ccc3ncc(-c4cnn(Cc5ccccc5[N+](=O)[O-])c4)cc3n2)c1 [Example 0703, N-(5-isopropylpyridazin-3-yl)-7-(1-(2-nitrobenzyl)-1H-pyrazol-4-yl)-1,5-naphthyridine-2-amine]
IC50 (human PI3Kα protein): < 1000 nM | IC50 ([1]; ERK2 enzyme assay (2)): < 1000 nM

CC(C)c1cnnc(Nc2ccc3ncc(-c4cnn(/C=C(\F)CN5CCCC5)c4)cc3n2)c1 [Example 0726, (Z)-7-(1-(2-fluoro-3-(pyrrolidin-1-yl)-1-propen-1-yl)-1H-pyrazol-4-yl)-N-(5-isopropylpyridazin-3-yl)-1,5-naphthyridine-2-amine]
IC50 (human PI3Kα protein): < 1000 nM | IC50 ([1]; ERK2 enzyme assay (2)): < 1000 nM

CCc1nc(C)cn1-c1cnc2ccc(Nc3cc(C(C)C)cnn3)nc2c1 [Example 0514]
IC50 (human PI3Kα protein): 1000 to 10000 nM | IC50 ([1]; ERK2 enzyme assay (2)): < 1000 nM

CC(C)c1cnnc(Nc2ccc3ncc(-c4cn(C)nc4CN(C)c4cccnc4)cc3n2)c1 [Example 0808]
IC50 (human PI3Kα protein): 1000 to 10000 nM | IC50 ([1]; ERK2 enzyme assay (2)): < 1000 nM

C=Cc1cnc2ccc(Nc3cc(C(C)C)cnn3)nc2c1 [Example 0638, N-(5-isopropylpyridazin-3-yl)-7-vinyl-1,5-naphthyridine-2-amine]
IC50 (human PI3Kα protein): 1000 to 10000 nM | IC50 ([1]; ERK2 enzyme assay (2)): < 1000 nM

Cn1cc(-c2cnc3ccc(Nc4cc(C5CC5)cnn4)nc3c2)cn1 [Example 0564]
IC50 (human PI3Kα protein): < 1000 nM | IC50 ([1]; ERK2 enzyme assay (2)): < 1000 nM

CC(C)c1cnnc(Nc2ccc3ncc(-c4cn(C)nc4CN4CCOCC4)cc3n2)c1 [Example 0942, N-(5-isopropylpyridazin-3-yl)-7-(1-methyl-3-(morpholinomethyl)-1H-pyrazol-4-yl)-1,5-naphthyridine-2-amine]
IC50 (human PI3Kα protein): < 1000 nM | IC50 [1]: < 1000 nM

COCC(C)c1cnnc(Nc2ccc3ncc(-c4cnn(C)c4)cc3n2)c1 (stereo not drawn) [Example 0788, N-(5-(1-methoxypropan-2-yl)pyridazin-3-yl)-7-(1-methyl-1H-pyrazol-4-yl)-1,5-naphthyridine-2-amine]
IC50 (human PI3Kα protein): < 1000 nM | IC50 ([1]; ERK2 enzyme assay (2)): < 1000 nM

Cn1cc(-c2cnc3ccc(Nc4cc(C5CCC5)cnn4)nc3c2)cn1 [Example 0577, N-(5-cyclobutylpyridazin-3-yl)-7-(1-methyl-1H-pyrazol-4-yl)-1,5-naphthyridine-2-amine]
IC50 (human PI3Kα protein): < 1000 nM | IC50 ([1]; ERK2 enzyme assay (2)): < 1000 nM

COC1CCN(c2cnc3ccc(Nc4cc(C(C)C)cnn4)nc3c2)C1 (stereo not drawn) [Example 0895]
IC50 (human PI3Kα protein): 1000 to 10000 nM | IC50 ([1]; ERK2 enzyme assay (2)): < 1000 nM

CC(C)c1cnnc(Nc2ccc3ncc(-c4cnn(C(C)(C)C)c4)cc3n2)c1 [Example 0481]
IC50 (human PI3Kα protein): 1000 to 10000 nM | IC50 ([1]; ERK2 enzyme assay (2)): < 1000 nM

CC(C)c1cnnc(Nc2ccc3ncc(N4C5CCC4COC5)cc3n2)c1 [Example 0901]
IC50 (human PI3Kα protein): 1000 to 10000 nM | IC50 [1]: < 1000 nM

CC(C)c1cnnc(Nc2ccc3ncc(-c4cnn(CC(F)(F)CN5CCCC5)c4)cc3n2)c1 [Example 0735, 7-(1-(2,2-Difluoro-3-(pyrrolidin-1-yl)propyl)-1H-pyrazol-4-yl)-N-(5-isopropylpyridazin-3-yl)-1,5-naphthyridine-2-amine]
IC50 (human PI3Kα protein): < 1000 nM | IC50 ([1]; ERK2 enzyme assay (2)): < 1000 nM

CC(C)Cc1cnnc(Nc2ccc3ncc(-c4cnn(C)c4)cc3n2)c1 [Example 0571]
IC50 (human PI3Kα protein): < 1000 nM | IC50 ([1]; ERK2 enzyme assay (2)): < 1000 nM

CC(C)c1cnnc(Nc2ccc3ncc(C(=O)NCCCO)cc3n2)c1 [Example 0663]
IC50 (human PI3Kα protein): 1000 to 10000 nM | IC50 ([1]; ERK2 enzyme assay (2)): 1000 to 10000 nM

CC(C)c1cnnc(Nc2ccc3ncc(-c4cnn(C5CC5)c4)cc3n2)c1 [Example 0563, 7-(1-Cyclopropyl-1H-pyrazol-4-yl)-N-(5-isopropylpyridazin-3-yl)-1,5-naphthyridine-2-amine]
IC50 (human PI3Kα protein): < 1000 nM | IC50 ([1]; ERK2 enzyme assay (2)): < 1000 nM

CC(C)c1cnnc(Nc2ccc3ncc(-c4cn(C)nc4N4CCCCC4)cc3n2)c1 [Example 0936]
IC50 (human PI3Kα protein): < 1000 nM | IC50 [1]: < 1000 nM

CC1CN(CCCn2cc(-c3cnc4ccc(Nc5cc(C(C)C)cnn5)nc4c3)cn2)CCO1 (stereo not drawn) [Example 0608]
IC50 (human PI3Kα protein): < 1000 nM | IC50 ([1]; ERK2 enzyme assay (2)): < 1000 nM

CC(C)c1cnnc(Nc2ccc3ncc(C4=CCNC4)cc3n2)c1 [Example 0906, 7-(2,5-Dihydro-1H-pyrrol-3-yl)-N-(5-isopropylpyridazin-3-yl)-1,5-naphthyridine-2-amine]
IC50 (human PI3Kα protein): 1000 to 10000 nM | IC50 [1]: < 1000 nM

CC(C)c1cnnc(Nc2ccc3ncc(-c4cnn(CCN5CCCCC5)c4)cc3n2)c1 [Example 0609, N-(5-isopropylpyridazin-3-yl)-7-(1-(2-(piperidin-1-yl)ethyl)-1H-pyrazol-4-yl)-1,5-naphthyridine-2-amine]
IC50 (human PI3Kα protein): < 1000 nM | IC50 ([1]; ERK2 enzyme assay (2)): < 1000 nM

CC(C)c1cnnc(Nc2ccc3ncc(N4CC5(COC5)C4)cc3n2)c1 [Example 0855]
IC50 (human PI3Kα protein): < 1000 nM | IC50 ([1]; ERK2 enzyme assay (2)): < 1000 nM

CC(C)c1cnnc(Nc2ccc3ncc(-c4cn(C)nc4COC4CN(C)C4)cc3n2)c1 [Example 0823, N-(5-isopropylpyridazin-3-yl)-7-(1-methyl-3-(((1-methylazetidin-3-yl)oxy)methyl)-1H-pyrazol-4-yl)-1,5-naphthyridine-2-amine]
IC50 (human PI3Kα protein): < 1000 nM | IC50 ([1]; ERK2 enzyme assay (2)): < 1000 nM

CC(C)c1cnnc(Nc2ccc3ncc(-c4cn(C)nc4N)cc3n2)c1 [Example 0636, 7-(3-amino-1-methyl-1H-pyrazol-4-yl)-N-(5-isopropylpyridazin-3-yl)-1,5-naphthyridine-2-amine]
IC50 (human PI3Kα protein): < 1000 nM | IC50 ([1]; ERK2 enzyme assay (2)): < 1000 nM

CC(C)c1cnnc(Nc2ccc3ncccc3n2)c1 [Example 0876]
IC50 (human PI3Kα protein): 1000 to 10000 nM | IC50 ([1]; ERK2 enzyme assay (2)): 1000 to 10000 nM

CC(C)c1cnnc(Nc2ccc3ncc(-c4cn(C)nc4NC4CCCC4)cc3n2)c1 [Example 0948]
IC50 (human PI3Kα protein): < 1000 nM | IC50 [1]: < 1000 nM

COc1ncccc1Cn1cc(-c2cnc3ccc(Nc4cc(C(C)C)cnn4)nc3c2)cn1 [Example 0454]
IC50 (human PI3Kα protein): < 1000 nM | IC50 ([1]; ERK2 enzyme assay (2)): < 1000 nM
